Assay results reported in article PMC5526551, “New hydrazonoindolin-2-ones: Synthesis, exploration of the possible anti-proliferative mechanism of action and encapsulation into PLGA microspheres” (PLoS ONE, 2017).

Tests used:
A549 = experiment: Cell viability assay of free 7e and 7e-loaded microspheres; type: cell-based, human
Procedure: Cell viability assay: The cell viability assay was performed as described in the section of anti-proliferative activity in the supplementary materials.
The human lung cancer A549 cell line was incubated with various concentrations (0.8, 1.6, 3.13, 6.25, 12.5, 25 and 50 μM) of both free 7e and 7e-loaded microspheres to evaluate the anti-proliferative activity by assessing their effect on cell viability.
A549, HT-29, ZR-75 were obtained from the American Type Culture Collection (ATCC). Cells were harvested from 90-95% confluent 10 cm dishes, and diluted in growth media (RPMI-1640 supplemented with 5% fetal bovine serum). An appropriate concentration of cells were prepared to add 1,250 cells in a volume of 25 µL per well in tissue culture treated Griener 384-well microplates, then incubated overnight at 37°C. Compound 7e was diluted to a concentration of 30 µM in DMSO. Concentrated dosing solutions of twice the final concentration were prepared by dilution of the DMSO stocks 1:500 in growth media. Two-fold serial dilutions were then prepared in medium containing 0.2% DMSO to maintain a constant concentration of vehicle throughout the concentration range of the compound. Each of these was added in an equal volume (25 µL) to four wells on each cell assay plate, along with the vehicle control. The highest concentration for serial dilutions of the positive control (sunitinib) was prepared exactly as the experimental compound 7e. […]
At the end of the treatment period, assay plates were allowed to cool to RT for 10 min prior to the addition of 25 µL per well Promega CellTiterGlo reagent, followed by additional 10 min incubation at RT. The resulting luminescence was quantitated using a Molecular Devices Spectramax Paradigm.

[1] = system: Caspase 3/7 activity in A549 cells; experiment: Apoptosis and caspase 3/7 activity (CaspaseGlo 3/7 luminescence); type: cell-based, human; settings: for Increase in caspase 3/7 activity: A549, 10 μM
Procedure: Compound 7e was analyzed for apoptosis inducing activity in cancer cells. These studies were carried out using cells derived from human lung (A549).
Fig 4 A-549 human lung cancer cells were treated with 3.3 and 10 μM 7e over a time course from 2–48 h. Caspase 3/7 activity was measured by a luminescence-based homogenous assay.
A549 cells were harvested from a 90% confluent 10 cm dish and diluted in growth medium. An appropriate concentration of cells were prepared to add 1,250 cells in a volume of 25 µL per well in tissue culture treated Corning 384-well microplates, then incubated overnight at 37°C. A single cluster of four wells containing no cells was included to serve as a background (no cell) control. Compound 7e was diluted in DMSO to concentrations […].
Concentrated dosing solutions of twice the final concentration were prepared by dilution of the DMSO stocks 1:500 in growth media. Three-fold dilutions of each dosing medium was then prepared in medium containing 0.2% DMSO to maintain a constant concentration of vehicle throughout the concentration range of the compound. Each of these was added in equal volume (25 µL) to four wells on each cell assay plate, along with the vehicle control. Cells were incubated with the compounds for a further 48 h. After 24 h, a separate group of cells was treated identically for 24 h. Likewise, groups of cells were treated for durations of 16, 8, 4 and 2 h.
At the end of the treatment period, assay plates were allowed to cool to RT for 10 min prior to addition of 25 µL per well Promega CaspaseGlo 3/7 reagent, followed by an additional 10 min incubation at RT. The resulting luminescence was quantitated using a Molecular Devices Spectramax Paradigm.
The average mean value of the background “no cell” control sample wells were subtracted from all vehicle and test compound wells.Fold-change in caspase activity was then calculated by dividing the mean sample value for each treatment time point by the mean vehicle value for the corresponding time.

O=C1Nc2ccc(Br)cc2C1=NN=C1C(=O)N(Cc2ccccc2)c2ccccc21 [Compound 7e, 1-Benzyl-3-((5-bromo-2-oxoindolin-3-ylidene)hydrazono)indolin-2-one]
Reduction in cell viability (A549; A549, 0.8 μM, 24 h): no cytotoxicity | Reduction in cell viability (A549; A549, 1.6 μM, 24 h): no cytotoxicity | Reduction in cell viability (A549; A549, 1.6 μM, 72 h): 30% | Reduction in cell viability (A549; A549, 3.1 μM, 72 h): 70% | Reduction in cell viability (A549; A549, 3.1 μM, 120 h): almost total inhibition | Reduction in cell viability (A549; A549, 3.13 μM, 24 h): 20% | Reduction in cell viability (A549; A549, 6.25 μM, 24 h): remarkable reduction | IC50 (A549; Homo sapiens, A549, 24 h of incubation, read-out: IC50 toward A549 cells): 6.51 µM | Increase in caspase 3/7 activity ([1]; 4 h): 2.4 fold | Increase in caspase 3/7 activity ([1]; 8 h): 1.85 fold | Effect on caspase 3/7 activity ([1]; A549, lower tested concentration (3.3 μM)): no effect
